Experimental data reported in patent US8338608B2, “Inhibitors of ion channels” (Icagen Inc., priority 2005, dated 2012).

Legend:
hSCN3A = biological target: T1, hSCN3A (Homo sapiens, UniProt Q9NY46); assay: SCN3A inhibitory activity in HEK cells stably expressing hSCN3A (whole-cell patch clamp / radiotracer efflux HTS); type: cell-based; conditions: HEK cells stably transfected with hSCN3A; read-out: SCN3A Inhibitory Activity
T1 construct: expressed in transfected cells

Nav1.3 = Nav1.3 (Homo sapiens, UniProt Q9NY46); conditions: read-out: TTX IC-50; cited from earlier work
Nav1.3, sequence (Q9NY46 whole entry, looked up): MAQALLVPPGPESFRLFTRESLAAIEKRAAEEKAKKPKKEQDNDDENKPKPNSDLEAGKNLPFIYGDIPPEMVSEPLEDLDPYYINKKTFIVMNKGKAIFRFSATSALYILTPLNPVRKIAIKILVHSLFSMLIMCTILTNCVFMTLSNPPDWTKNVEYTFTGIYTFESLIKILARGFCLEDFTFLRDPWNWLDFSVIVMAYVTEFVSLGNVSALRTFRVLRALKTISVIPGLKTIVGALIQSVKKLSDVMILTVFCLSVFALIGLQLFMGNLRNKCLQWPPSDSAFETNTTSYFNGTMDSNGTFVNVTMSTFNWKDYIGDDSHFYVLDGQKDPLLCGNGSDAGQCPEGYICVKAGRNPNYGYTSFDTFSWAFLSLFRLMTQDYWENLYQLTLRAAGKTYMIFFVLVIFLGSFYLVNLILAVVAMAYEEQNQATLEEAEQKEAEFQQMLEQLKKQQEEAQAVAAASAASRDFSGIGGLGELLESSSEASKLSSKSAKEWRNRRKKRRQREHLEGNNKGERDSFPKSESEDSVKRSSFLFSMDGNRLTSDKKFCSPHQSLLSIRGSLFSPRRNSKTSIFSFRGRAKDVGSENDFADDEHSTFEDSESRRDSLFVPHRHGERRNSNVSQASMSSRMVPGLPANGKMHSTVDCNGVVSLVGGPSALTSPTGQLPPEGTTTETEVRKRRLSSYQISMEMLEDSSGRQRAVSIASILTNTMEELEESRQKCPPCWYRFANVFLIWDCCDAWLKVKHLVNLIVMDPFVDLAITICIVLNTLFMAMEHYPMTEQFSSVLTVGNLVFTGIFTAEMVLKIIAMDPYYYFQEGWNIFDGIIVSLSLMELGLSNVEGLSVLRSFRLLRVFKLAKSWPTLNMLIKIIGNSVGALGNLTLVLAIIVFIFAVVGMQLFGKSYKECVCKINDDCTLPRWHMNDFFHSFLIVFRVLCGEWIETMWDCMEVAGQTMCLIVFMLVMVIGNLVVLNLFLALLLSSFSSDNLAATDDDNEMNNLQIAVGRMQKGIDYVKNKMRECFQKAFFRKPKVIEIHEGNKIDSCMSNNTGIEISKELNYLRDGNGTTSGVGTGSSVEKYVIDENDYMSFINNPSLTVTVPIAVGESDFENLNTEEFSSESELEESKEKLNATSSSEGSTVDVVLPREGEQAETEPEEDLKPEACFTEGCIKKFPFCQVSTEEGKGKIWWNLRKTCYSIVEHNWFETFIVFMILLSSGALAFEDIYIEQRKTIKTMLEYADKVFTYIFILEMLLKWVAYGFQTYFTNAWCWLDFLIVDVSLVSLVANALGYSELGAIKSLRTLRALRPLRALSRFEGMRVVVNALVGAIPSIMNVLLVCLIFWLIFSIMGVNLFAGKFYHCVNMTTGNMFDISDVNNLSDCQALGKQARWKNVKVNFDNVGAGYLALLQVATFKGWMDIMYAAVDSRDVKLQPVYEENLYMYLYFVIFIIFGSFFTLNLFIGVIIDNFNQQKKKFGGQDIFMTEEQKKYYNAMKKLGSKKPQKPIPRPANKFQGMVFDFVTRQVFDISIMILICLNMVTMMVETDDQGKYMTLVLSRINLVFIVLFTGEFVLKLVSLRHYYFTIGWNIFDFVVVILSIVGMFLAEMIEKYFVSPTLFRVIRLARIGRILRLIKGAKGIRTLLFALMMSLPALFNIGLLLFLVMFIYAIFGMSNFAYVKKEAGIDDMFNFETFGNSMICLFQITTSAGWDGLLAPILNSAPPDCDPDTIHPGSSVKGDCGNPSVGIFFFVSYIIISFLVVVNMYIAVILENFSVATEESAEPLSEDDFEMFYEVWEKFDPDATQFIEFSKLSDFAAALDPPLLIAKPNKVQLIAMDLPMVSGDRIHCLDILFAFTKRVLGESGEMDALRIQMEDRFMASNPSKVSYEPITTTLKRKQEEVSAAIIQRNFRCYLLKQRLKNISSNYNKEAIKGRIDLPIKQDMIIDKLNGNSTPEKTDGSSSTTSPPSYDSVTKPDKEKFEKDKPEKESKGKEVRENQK

Nav1.6 = Nav1.6 (Homo sapiens, UniProt Q9UQD0); conditions: read-out: TTX IC-50; cited from earlier work
Nav1.8 = Nav1.8 (Homo sapiens, UniProt Q9Y5Y9); conditions: read-out: TTX IC-50; cited from earlier work
Nav1.8, sequence (Q9Y5Y9 whole entry, looked up): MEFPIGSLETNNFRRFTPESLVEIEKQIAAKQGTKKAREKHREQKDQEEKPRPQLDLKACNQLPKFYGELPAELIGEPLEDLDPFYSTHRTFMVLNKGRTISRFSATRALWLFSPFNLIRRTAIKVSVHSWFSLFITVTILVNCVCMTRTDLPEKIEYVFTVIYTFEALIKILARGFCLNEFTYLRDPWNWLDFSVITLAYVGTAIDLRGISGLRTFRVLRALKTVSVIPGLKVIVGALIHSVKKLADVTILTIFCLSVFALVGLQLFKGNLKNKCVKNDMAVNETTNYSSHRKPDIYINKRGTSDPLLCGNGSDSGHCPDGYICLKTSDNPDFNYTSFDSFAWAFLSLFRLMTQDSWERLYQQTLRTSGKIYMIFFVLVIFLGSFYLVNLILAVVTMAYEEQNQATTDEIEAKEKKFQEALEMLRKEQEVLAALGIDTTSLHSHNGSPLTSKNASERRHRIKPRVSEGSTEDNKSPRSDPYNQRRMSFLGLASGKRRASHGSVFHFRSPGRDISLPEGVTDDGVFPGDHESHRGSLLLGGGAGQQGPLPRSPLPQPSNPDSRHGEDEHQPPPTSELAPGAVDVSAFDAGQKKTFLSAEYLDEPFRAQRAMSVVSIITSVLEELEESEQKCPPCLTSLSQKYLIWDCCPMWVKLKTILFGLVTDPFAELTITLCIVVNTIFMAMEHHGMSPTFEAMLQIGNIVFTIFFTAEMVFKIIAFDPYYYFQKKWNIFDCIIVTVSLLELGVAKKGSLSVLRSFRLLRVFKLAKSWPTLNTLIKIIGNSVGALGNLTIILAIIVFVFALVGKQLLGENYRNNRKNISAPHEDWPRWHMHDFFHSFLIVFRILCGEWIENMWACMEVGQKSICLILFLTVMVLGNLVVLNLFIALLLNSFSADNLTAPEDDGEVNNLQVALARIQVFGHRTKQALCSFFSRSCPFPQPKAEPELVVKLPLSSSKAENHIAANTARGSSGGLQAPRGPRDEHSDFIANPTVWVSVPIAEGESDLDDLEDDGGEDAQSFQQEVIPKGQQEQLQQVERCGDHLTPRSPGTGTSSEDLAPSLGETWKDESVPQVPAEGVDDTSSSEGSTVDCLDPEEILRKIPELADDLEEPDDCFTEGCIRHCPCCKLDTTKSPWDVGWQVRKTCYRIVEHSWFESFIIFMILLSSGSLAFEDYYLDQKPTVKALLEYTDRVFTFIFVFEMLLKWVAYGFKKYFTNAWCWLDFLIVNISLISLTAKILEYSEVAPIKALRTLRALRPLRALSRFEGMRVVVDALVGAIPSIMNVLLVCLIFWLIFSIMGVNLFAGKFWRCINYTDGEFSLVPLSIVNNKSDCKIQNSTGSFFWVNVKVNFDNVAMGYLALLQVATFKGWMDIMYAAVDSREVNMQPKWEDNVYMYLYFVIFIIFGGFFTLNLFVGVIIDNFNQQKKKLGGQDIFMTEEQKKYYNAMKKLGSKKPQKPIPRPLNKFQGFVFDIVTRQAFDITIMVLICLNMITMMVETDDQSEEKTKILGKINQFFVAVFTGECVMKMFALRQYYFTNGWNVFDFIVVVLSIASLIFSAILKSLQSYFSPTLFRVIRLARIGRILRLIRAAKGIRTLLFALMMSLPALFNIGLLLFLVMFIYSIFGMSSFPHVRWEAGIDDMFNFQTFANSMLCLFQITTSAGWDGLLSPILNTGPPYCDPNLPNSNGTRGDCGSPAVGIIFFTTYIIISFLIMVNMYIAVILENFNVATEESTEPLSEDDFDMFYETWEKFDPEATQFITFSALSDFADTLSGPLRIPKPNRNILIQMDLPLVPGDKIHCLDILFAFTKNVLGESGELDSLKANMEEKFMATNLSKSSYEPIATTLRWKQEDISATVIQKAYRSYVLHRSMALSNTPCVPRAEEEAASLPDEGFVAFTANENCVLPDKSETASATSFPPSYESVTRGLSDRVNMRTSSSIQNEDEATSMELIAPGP

Nav1.9 = Nav1.9 (Homo sapiens, UniProt Q9UI33); conditions: read-out: TTX IC-50; cited from earlier work
Nav1.1 = Nav1.1 (Homo sapiens, UniProt P35498); conditions: read-out: TTX IC-50; cited from earlier work
Nav1.2 = Nav1.2 (Homo sapiens, UniProt Q99250); conditions: read-out: TTX IC-50; cited from earlier work
[1] = 'as little as only'; cited from earlier work

T1 sequence (Q9NY46 whole entry): as the sequence (Q9NY46 whole entry, looked up) above

| Structure (SMILES) | IC50 (hSCN3A) | also measured |
| --- | --- | --- |
| CC(C)(CNS(=O)(=O)c1ccc(S(=O)(=O)Nc2nccs2)cc1)c1ccc(Cl)cc1 [Compound 39, Benzene-1,4-disulfonic acid 1-{[2-(4-chloro-phenyl)-2-methyl-propyl]-amide} 4-thiazol-2-ylamide] | 100 to 500 nM |  |
| O=S(=O)(NCc1cc(F)cc(C(F)(F)F)c1)c1ccc(S(=O)(=O)Nc2nccs2)cc1 [Compound 40, Benzene-1,4-disulfonic acid 1-(3-fluoro-5-trifluoromethyl-benzylamide) 4-thiazol-2-ylamide] | 100 to 500 nM |  |
| O=S(=O)(NCCc1ccc(Cl)s1)c1ccc(S(=O)(=O)Nc2nccs2)cc1 [Compound 41, Benzene-1,4-disulfonic acid 1-{[2-(5-chloro-thiophen-2-yl)-ethyl]-amide} 4-thiazol-2-ylamide] | 100 to 500 nM |  |
| CC(C)(C)CCNS(=O)(=O)c1ccc(S(=O)(=O)Nc2nccs2)c(F)c1 [Compound 42, 2-Fluoro-benzene-1,4-disulfonic acid 4-[(3,3-dimethyl-butyl)-amide] 1-thiazol-2-ylamide] | 100 to 500 nM |  |
| O=S(=O)(NCCOc1ccccc1Cl)Nc1ccc(S(=O)(=O)Nc2nccs2)cc1 [Compound 43, N-[2-(2-chloro-phenoxyl)-ethyl]-N′-[4-(N-thiazol-2-yl-sulfonamyl)-phenyl]-sulfamide] | 500 to 1000 nM |  |
| O=S(=O)(NCCC1CCCCC1)c1ccc(S(=O)(=O)Nc2nccs2)cc1 [Compound 44, Benzene-1,4-disulfonic acid 1-[(2-cyclohexyl-ethyl)-amide] 4-thiazol-2-ylamide] | 500 to 1000 nM |  |
| O=S(=O)(NCC(c1ccccc1)c1ccccc1)Nc1ccc(S(=O)(=O)Nc2nccs2)cn1 [Compound 45] | > 1000 nM |  |
| O=S(=O)(NCCC1CCOCC1)Nc1ccc(S(=O)(=O)Nc2nccs2)cc1 [Compound 46, N-[2-(4-tetrahydro-pyranyl]-ethyl]-N′-[4-(N-thiazol-2-yl-sulfonamyl)-phenyl]-sulfamide] | > 1000 nM |  |
| CN(CCc1ccccc1)S(=O)(=O)c1ccc(S(=O)(=O)Nc2nccs2)cc1 [Compound 47, Benzene-1,4-disulfonic acid 1-(methyl-phenethyl-amide) 4-thiazol-2-ylamide] | > 1000 nM |  |
| NC1=N[C@H](O)[C@H]2[C@H]3O[C@]4(O)O[C@@H]([C@@H](O)[C@@]2(N1)[C@@H]4O)[C@]3(O)CO [TTX, tetrodotoxin] |  | IC50 (Nav1.3): 15 nM; IC50 (Nav1.6): 6 nM; IC50 (Nav1.8): 50000 nM; IC50 (Nav1.9): 1000 nM; IC50 (Nav1.1): 10 nM; IC50 (Nav1.2): 10 nM |
| NCC1(CC(=O)O)CCCCC1 [gabapentin] |  | patients respond to gabapentin treatment for neuropathic pain [1]: 30% |
